Data published in US8252899B2, “Methods and compositions for obtaining high-resolution crystals of membrane proteins” (The Scripps Research Institute, priority 2007, dated 2012).

Legend:
β2AR-T4L [1] = conditions: for λmax ± SD for β2AR-T4L: bimane emission, excitation 350 nm, saturating ligand; for λmax ± SD for β2AR-T4L / Intensity at λmax Ligand/Intensity at λmax none, β2AR-T4L: 15 min incubation; for Intensity at λmax Ligand/Intensity at λmax none, β2AR-T4L: bimane fluorescence, ratio to no-ligand control
wild-type β2AR = wild-type β2AR (Homo sapiens, UniProt P07550); assay: Saturation binding of [3H]DHA to membranes from Sf9 cells expressing wild-type β2AR
β2AR-T4L [2] = assay: Saturation binding of [3H]DHA to membranes from Sf9 cells expressing β2AR-T4L; set-up: species or system human
Procedure: FIG. 15. Affinity curves for adrenergic ligands binding to β2AR-T4L and wildtype β2AR. […] Binding experiments on membranes isolated from Sf9 insect cells expressing the receptors were performed as described above.
Membrane preparation from baculovirus-infected Sf9 cells was performed as described previously (Swaminath, et al., Mol Pharmacol 61, 65 (2002)). For each binding reaction, membranes containing 0.7 μg total membrane protein were used. Saturation binding of [^3H]-dihydroalprenolol (DHA) was measured by incubating membranes resuspended in 500 μl binding buffer (75 mM Tris, 12.5 mM MgCl2, 1 mM EDTA, pH 7.4, supplemented with 0.4 mg/ml BSA) with 12 different concentrations of [^3H]DHA (Perkin Elmer) between 20 pM and 10 nM. After 1 h incubation with shaking at 230 rpm, membranes were filtered from the binding reactions with a Brandel harvester, washed with binding buffer, and measured for bound [^3H]DHA with a Beckman LS6000 scintillation counter. […] For competition binding, membranes resuspended in 500 μl binding buffer were incubated with 0.5 nM [^3H]DHA plus increasing concentrations of the competing ligand (all compounds were purchased from Sigma). […] Each data point in the curves in FIGS. 2A and S1 represents the mean of three separate experiments, each done in triplicate. Binding data were analyzed by nonlinear regression analysis using Graphpad Prism.

[3] = target: β2AR Val114^3.33 to alanine mutant (Homo sapiens, UniProt P07550, V114A); conditions: Chelikani et al. 2007; cited from earlier work

With `CC(C)(C)NCC(O)c1ccc(O)c(CO)c1` (centres unmarked) [salbutamol] the “ligand-induced change of bimane fluorescence (in words), β2AR-T4L” value (β2AR-T4L [1]) was “larger responses”, the “λmax ± SD for β2AR-T4L” value (β2AR-T4L [1]) was 449 ± 1 nm and the “Intensity at λmax Ligand/Intensity at λmax none, β2AR-T4L” value (β2AR-T4L [1]) was 0.928 ± 0.009.

For `CC(C)NC[C@H](O)c1ccc(O)c(O)c1` [(−)-isoproteronol, (−)-isoproterenol], the “ligand-induced change of bimane fluorescence (in words), β2AR-T4L” value (β2AR-T4L [1]) was “qualitatively similar decrease in intensity and rightward shift in λmax”, the “λmax ± SD for β2AR-T4L” value (β2AR-T4L [1]) was 455 ± 2 nm and the “Intensity at λmax Ligand/Intensity at λmax none, β2AR-T4L” value (β2AR-T4L [1]) was 0.824 ± 0.006.

In the case of `CCCc1ccccc1OCC(O)CNC(C)C` (centres unmarked) [[^3H]DHA, [^3H]-dihydroalprenolol], the Bmax (wild-type β2AR) is reported as 30.0 ± 0.5 pmol/mg, the Kd (wild-type β2AR; read-out: Kd ± SE) is reported as 0.161 ± 0.012 nM and the “affinity for β2AR-T4L relative to wild-type β2AR (saturation binding)” value (β2AR-T4L [2]) is reported as “wild-type affinity”. The Kd (β2AR-T4L [2]; saturation binding, β2AR-T4L, Sf9 membranes, read-out: Kd ± SE) was 0.18 ± 0.016 nM.

In the case of `CNC[C@H](O)c1ccc(O)c(O)c1` [(−)-epinephrine], the “lowering of affinity by Val114 to alanine mutation” value [3] is listed as 300 fold.
